These results are taken from the supplement of paper PMC10307832.

Holding throughout (assay): relative viability (nuclei count vs DMSO), 5 days (fraction); higher = more cells survive
Compound in the assay “Vandetanib + Linsitinib”: COc1cc2/c(=N/c3ccc(Br)cc3F)nc[nH]c2cc1OCC1CCN(C)CC1 [Vandetanib] + C[C@]1(O)C[C@@H](c2nc(-c3ccc4ccc(-c5ccccc5)nc4c3)c3c(N)nccn32)C1 [Linsitinib] (partner 1 µM)
The essentials: (§1)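 Dosing by pin tool came one day after lung cancer cell lines were seeded in 1536-well plates, using either one drug or a fixed anchor-drug dose plus five library-drug doses (not always all listed) in √10 steps. After 5 days, nuclei were counted on 4× images. Relative viability is treated-well nuclei count divided by vehicle-well nuclei count, and values are medians of duplicate plates.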

Compound in the assay “NVP-TAE684 + Crizotinib”: COc1cc(N2CCC(N3CCN(C)CC3)CC2)ccc1Nc1ncc(Cl)c(Nc2ccccc2S(=O)(=O)C(C)C)n1 [NVP-TAE684] + C[C@@H](Oc1cc(-c2cnn(C3CCNCC3)c2)cnc1N)c1c(Cl)ccc(F)c1Cl [Crizotinib] (partner 1 µM)
In a few lines:
as §1

Compound in the assay “Vandetanib + Lapatinib”: COc1cc2/c(=N/c3ccc(Br)cc3F)nc[nH]c2cc1OCC1CCN(C)CC1 [Vandetanib] + CS(=O)(=O)CCNCc1ccc(-c2ccc3ncnc(Nc4ccc(OCc5cccc(F)c5)c(Cl)c4)c3c2)o1 [Lapatinib] (partner 2 µM)
The essentials:
as §1

Compound in the assay “CUDC-101 + OSI-027”: C#Cc1cccc(Nc2ncnc3cc(OC)c(OCCCCCCC(=O)NO)cc23)c1 [CUDC-101] + COc1cccc2cc(-c3nc([C@H]4CC[C@H](C(=O)O)CC4)n4ncnc(N)c34)[nH]c12 [OSI-027] (partner 0.5 µM)
In a few lines: as §1

As to SK-MES-1, the relative viability was found to be 1.09 with Vandetanib + Linsitinib (first compound 0.02 µM); 0.925 with Vandetanib + Linsitinib (first compound 0.06325 µM); 1.06 with Vandetanib + Linsitinib (first compound 0.2 µM); 0.971 in the assay with Vandetanib + Linsitinib (first compound 0.6325 µM); 0.989 with Vandetanib + Linsitinib (first compound 2 µM); 0.983 with NVP-TAE684 + Crizotinib (first compound 0.6325 µM). The relative viability is 0.804 in the assay with NVP-TAE684 + Crizotinib (first compound 2 µM); 0.474 in the assay with Vandetanib + Lapatinib (first compound 0.02 µM); 0.499 in the assay with Vandetanib + Lapatinib (first compound 0.06325 µM); 0.489 in the assay with Vandetanib + Lapatinib (first compound 0.2 µM); 0.471 with Vandetanib + Lapatinib (first compound 0.6325 µM); 0.459 with Vandetanib + Lapatinib (first compound 2 µM). The relative viability came to 0.604 with CUDC-101 + OSI-027 (first compound 0.01 µM); 0.601 with CUDC-101 + OSI-027 (first compound 0.03162 µM); 0.673 with CUDC-101 + OSI-027 (first compound 0.1 µM); 0.656 with CUDC-101 + OSI-027 (first compound 0.3162 µM); 0.381 with CUDC-101 + OSI-027 (first compound 1 µM).
For SW 1573, the relative viability was 0.832 with Vandetanib + Linsitinib (first compound 0.02 µM); 0.777 in the assay with Vandetanib + Linsitinib (first compound 0.06325 µM); 0.749 with Vandetanib + Linsitinib (first compound 0.2 µM); 0.741 with Vandetanib + Linsitinib (first compound 0.6325 µM); 0.794 with Vandetanib + Linsitinib (first compound 2 µM); 0.971 with NVP-TAE684 + Crizotinib (first compound 0.2 µM). The relative viability with NVP-TAE684 + Crizotinib (first compound 0.6325 µM) came to 0.805; with NVP-TAE684 + Crizotinib (first compound 2 µM), 0.673; with Vandetanib + Lapatinib (first compound 0.02 µM), 1.07; with Vandetanib + Lapatinib (first compound 0.06325 µM), 1.21; with Vandetanib + Lapatinib (first compound 0.2 µM), 0.599; in the assay with Vandetanib + Lapatinib (first compound 0.6325 µM) it was 1.2. Moreover, the relative viability with Vandetanib + Lapatinib (first compound 2 µM) amounted to 1.17; in the assay with CUDC-101 + OSI-027 (first compound 0.01 µM), 0.578; with CUDC-101 + OSI-027 (first compound 0.03162 µM), 0.623; in the assay with CUDC-101 + OSI-027 (first compound 0.1 µM) it was 0.726; in the assay with CUDC-101 + OSI-027 (first compound 0.3162 µM), 0.766; with CUDC-101 + OSI-027 (first compound 1 µM) it was 0.279.
